Laboratory results from patent US11439655B2, “Compounds for use in wound healing and angiogenesis” (UNIVERSITY OF SOUTH CAROLINA, priority 2017, dated 2022).

How the values were obtained:
NHDFs = test: In vitro scratch assay (simulated wound closure, cell migration); format: cell-based, human; conditions: for time of wound closure of fibroblast compared to the control (growth media): after multiple different time intervals
Description: (§1) In Vitro Scratch Assay Cell migration was assessed through making a scratch on confluent monolayers of NHDFs and NHEKs. A total of 15×10^4 cells per well were seeded on a 24 well plate and left overnight to reach confluency. The cell layer was then scraped using a 200 μl pipet tip and any cell debris was washed away with PBS. The samples were supplemented with different concentration of the compounds of interest in growth media and incubated at 37° C. and 5% CO2 for 20 hours. Images were taken every 4 hours using a phase contrast Nikon Eclipse Ti-E inverted microscope. Quantification of percent wound healing was performed by measuring the gap distance using the following formula, [formula] where Wn is the width of gap after every 4 hours and W0 is the initial width zero right after forming a scratch. Capillary Tube Formation

NHEKs = test: as above; format: cell-based, human; conditions: for NHEK gap closure / level of wound closure vs control: compounds 10 and 20 μg/ml, extract 50 μg/ml, over 20 h, control growth media; for time of wound closure of keratinocyte compared to the control (growth media): after multiple different time intervals
Description: as §1

HUVECs = test: Capillary tube formation on matrigel; format: cell-based, human; conditions: 10 and 20 μg/ml
Description: [formula] where Wn is the width of gap after every 4 hours and W0 is the initial width zero right after forming a scratch. Capillary Tube Formation Matrigel kept in a −20° C. freezer and thawed on ice overnight in a 4° C. refrigerator. A total of 50 μl of thawed matrigel was added to each well of pre-chilled 96-well plate and then incubated for 30 min at 37° C. to form a gel. Next, 100 μl of a HUVEC cell suspension (passage 2-6) in conditioned media (20000 cell/well) including the compounds of this invention was added to gel and incubated at 37° C. for 8 hours. The number of junctions in tubes was examined using a phase contrast inverted microscope (Invitrogen EVOS FL Auto Cell Imaging) and compared to the conditions with no compound (negative control).

[1] = system: Human Umbilical Vein Endothelial Cells (HUVECs); test: Cytotoxicity assay (MTS), cell viability/proliferation; format: cell-based; conditions: 24 h exposure, 10, 20, 50 and 100 μg/ml, vs control and DMSO vehicle control
Description: (§2) Human Umbilical Vein Endothelial cells (HUVEC), Adult Normal Human Epidermal Keratinocytes (NHEK), Normal Human Dermal fibroblast (NHDF) and related media for cell culture including endothelial basal and growth medium-2 (EBM-2, EGM-2), keratinocyte basal and growth medium-2 (KBM-2, KGM™-2), fibroblast basal and growth medium (FBM, FGM™) were purchased from Lonza. The cell types were selected due to their important physiologic role in early and late stages of wound healing. Cells were incubated at 37° C. and 5% CO2 throughout the examples. Phosphate-Buffered Saline (PBS), [3-(4,5-dimethylthiazol-2-yl)-5-(3-carboxymethoxyphenyl)-2-(4-sulfophenyl)-2H-tetrazolium (MTS) (Promega) colorimetric assay and growth factor reduced matrigel BD (Corning) were from Sigma-Aldrich.
(§3) In order to determine cell viability, HUVECs, NHDFs, and NHEKs were cultured in their growth media to reach 80% confluency. Cells were seeded at the density of 5×10^3 cell per 96 well plate in a total volume of 100 μl in each well. After seeding, the cells were incubated for 24 hours at 37° C. and 5% CO2 to allow for cell attachment. Media was changed and replaced with media supplemented with the desired concentration of the test compounds (10, 20, 50 and 100 μg/ml), being first dissolved at 10 mg/ml in DMSO and subsequently diluted in culture media. The vehicle control was culture medium supplemented with DMSO 0.5% (Macron Fine Chemicals), representing the highest final concentration of DMSO used to dissolve the natural compound. Following 24 hours of incubation, […] and incubated for 2 hours.

[2] = system: Normal Human Dermal Fibroblasts (NHDFs); test: as above; format: cell-based; conditions: 24 h exposure, 10, 20, 50 and 100 μg/ml, vs control and DMSO vehicle control
Description: as §2, §3

[3] = system: Normal Human Epidermal Keratinocytes (NHEKs); test: as above; format: cell-based; conditions: 24 h exposure, 10, 20, 50 and 100 μg/ml, vs control and DMSO vehicle control
Description: as §2, §3

SMILES	NHDF gap closure / migration into the scratched gap vs control (NHDFs; NHDFs, compounds 10 and 20 μg/ml, extract 50 μg/ml, over 20 h)	time of wound closure of fibroblast compared to the control (growth media) (NHDFs)	percentage of gap closed (simulated wound closure) (NHEKs; NHEKs, 10 μg/ml, 6 h)	NHEK gap closure / level of wound closure vs control (NHEKs; NHEKs)	NHEK migration rate at higher concentration (NHEKs; NHEKs, higher concentration (20 μg/ml) vs 10 μg/ml)	time of wound closure of keratinocyte compared to the control (growth media) (NHEKs)	capillary tube (tubule) formation, phase contrast microscopy (HUVECs)	toxicity (cell viability, MTS assay) [1]	toxicity (cell viability, MTS assay) [2]	toxicity (cell viability, MTS assay) [3]	NHDF gap closure (NHDFs; NHDFs, 10 μg/ml, all time points up to 20 h)	NHDF wound closure at higher concentration (NHDFs; NHDFs, higher concentration (20 μg/ml), early time points)	number of junctions relative to control groups (HUVECs; 8 h)
O=C(/C=C/c1ccc(O)c(O)c1)O[C@@H]1C[C@](O)(C(=O)O)C[C@@H](O)[C@H]1O [3-O-caffeoylquinic acid]	delayed effect on NHDF gap closure at 20 h post-seeding	reduced time of wound closure	approximately 40%	highest level of wound closure	did not lead to a faster migration rate	reduced time of wound closure	formation of tubules assembled by the elongation and joining of HUVECs	–	–	–	–	–	–
C[C@H]1O[C@@H](Oc2c(-c3cc(O)c(O)c(O)c3)oc3cc(O)cc(O)c3c2=O)[C@@H](O)[C@@H](O)[C@@H]1O [myricetin-3-o-ß-rhamnoside]	–	reduced time of wound closure	–	Neither myricetin-3-o-ß-rhamnoside nor total P. persica extract led to a significantly higher NHEK gap closure than the control	–	reduced time of wound closure	formation of tubules assembled by the elongation and joining of HUVECs	No toxicity was observed	No toxicity was observed	No toxicity was observed	accelerated gap closure at all time points	negative effect on wound closure during early time points	approximately 3 fold
